Data taken from PubChem BioAssay (NCI).
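1) Cells in 96-well plates. 2) Compound, 48 h, 5 concentrations. 3) Linear interpolation between surrounding doses. 4) Unreached endpoint = highest concentration. GI50 is the concentration that inhibits growth by half. The concentration for full growth arrest is given as TGI.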

Experiments:
Assay in all cases: inhibition of tumour cell growth, NCI panel, 48 h
HOP-92 NSCLC = tested on: HOP-92 NSCLC
HOP-62 NSCLC = tested on: HOP-62 NSCLC
SF-268 CNS = tested on: SF-268 CNS
KM20L2 colon = tested on: KM20L2 colon
OVCAR-8 ovarian = tested on: OVCAR-8 ovarian
K-562 leukemia = tested on: K-562 leukemia
LOX IMVI melanoma = tested on: LOX IMVI melanoma
NCI-H522 lung = tested on: NCI-H522 lung
NCI-H460 lung = tested on: NCI-H460 lung
SK-MEL-28 melanoma = tested on: SK-MEL-28 melanoma

SMILES	GI50 (HOP-92 NSCLC) [µM]	TGI (HOP-92 NSCLC) [µM]	TGI (HOP-62 NSCLC) [µM]	TGI (SF-268 CNS) [µM]	GI50 (KM20L2 colon) [µM]	TGI (KM20L2 colon) [µM]	TGI (OVCAR-8 ovarian) [µM]	TGI (K-562 leukemia) [µM]	TGI (LOX IMVI melanoma) [µM]	TGI (NCI-H522 lung) [µM]	TGI (NCI-H460 lung) [µM]	TGI (SK-MEL-28 melanoma) [µM]	GI50 (HOP-62 NSCLC) [µM]	GI50 (SF-268 CNS) [µM]	GI50 (K-562 leukemia) [µM]	GI50 (NCI-H522 lung) [µM]	GI50 (OVCAR-8 ovarian) [µM]	GI50 (LOX IMVI melanoma) [µM]	GI50 (NCI-H460 lung) [µM]	GI50 (SK-MEL-28 melanoma) [µM]
O=C(N/N=C/c1cc(Cl)cc(Cl)c1[O-])c1ccccc1O.O=C(N/N=C/c1cc(Cl)cc(Cl)c1[O-])c1ccccc1O.[Ni+2]	0.495	1.79	2.09	18.5	0.794	2.15	1.41	17.4	1.81	0.823	1.73	2.09								
O=C(NC1CCN(Cc2ccccc2)CC1)c1cc2nc(-c3ccc(Cl)s3)cc(C(F)(F)F)n2n1	15.4	> 100	> 100	> 100				> 100		> 100			27	> 100	3.29	8.45				
N#C[S-].[Nd+3].c1ccc(-c2ccccn2)nc1.c1ccc(-c2ccccn2)nc1.c1ccc(-c2ccccn2)nc1					2.38	6.08	> 100		> 100		37.3	> 100					4.8	4.23	4.25	13.7
